Assay results published in the supplement of paper PMC4862054.

Key:
Details in all cases: incubation time: 72 h
MDA-MB-468 [1] = assay: drug sensitivity score (DSS), CellTiter-Blue viability (DSS (AUC-based score)); higher = stronger viability inhibition; extreme values may be limits of the assay
Protocol: (§1)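 DSRT with the CellTiter-Blue (resazurin reduction) viability readout, fluorescence 560/590 nm, 72 h incubation. Plates were normalised to DMSO and benzethonium chloride controls. DSS is computed from the area under the fitted dose-response curve (5 or 9 concentrations).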

MFM-223 = assay: as above
Protocol: as §1

CAL-85-1 [2] = assay: as above
Protocol: as §1

BT-549 = assay: as above
Protocol: as §1

CAL-120 [3] = assay: as above
Protocol: as §1

HCC1937 [4] = assay: as above
Protocol: as §1

MDA-MB-231 [5] = assay: as above
Protocol: as §1

HCC1599 [6] = assay: as above
Protocol: as §1

CAL-148 [7] = assay: as above
Protocol: as §1

CAL-51 = assay: as above
Protocol: as §1

HCC1143 [8] = assay: as above
Protocol: as §1

BT-474 = assay: as above
Protocol: as §1

DU-4475 = assay: as above
Protocol: as §1

MDA-MB-453 = assay: as above
Protocol: as §1

MDA-MB-468 [9] = assay: normalised viability (% of control), CellTiter-Blue; higher = more viable cells (about 100 = DMSO control)
Method in brief: (§2)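 Compound dissolved in 5 µl medium was pre-loaded into 384-well plates, and breast cancer cell lines in 20 µl suspension were seeded on top and incubated 72 h. After adding 2.5 µl CellTiter-Blue reagent for 2 h at 37 °C, fluorescence was read at 560/590 nm. Plates were normalised to vehicle (100) and a positive kill control (0), with Z'-factor quality control. Each value is normalised viability at a single listed concentration from the series.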

CAL-85-1 [10] = assay: as above
Method in brief: as §2

CAL-120 [11] = assay: as above
Method in brief: as §2

Hs578T = assay: as above
Method in brief: as §2

HCC1937 [12] = assay: as above
Method in brief: as §2

MDA-MB-231 [13] = assay: as above
Method in brief: as §2

HDQ-P1 = assay: as above
Method in brief: as §2

HCC1599 [14] = assay: as above
Method in brief: as §2

CAL-148 [15] = assay: as above
Method in brief: as §2

MDA-MB-436 = assay: as above
Method in brief: as §2

HCC1143 [16] = assay: as above
Method in brief: as §2

NC(=O)c1ccc(I)c([N+](=O)[O-])c1 [Iniparib]
Details	drug sensitivity score
BT-474	0
BT-549	0
CAL-51	0
CAL-85-1 [2]	0
CAL-120 [3]	1.19
CAL-148 [7]	0
DU-4475	0
HCC1143 [8]	0
HCC1599 [6]	0
HCC1937 [4]	0
MDA-MB-231 [5]	0
MDA-MB-453	0
MDA-MB-468 [1]	0
MFM-223	0

normalised viability [%]
Details	3 nM	10 nM	30 nM	100 nM	1000 nM	10000 nM
CAL-85-1 [10]	91.5	–	83.8	89.5	–	–
CAL-120 [11]	–	87.3	–	–	98.6	72.7
CAL-148 [15]	85.6	–	92.8	90.2	–	–
HCC1143 [16]	–	93.6	–	–	102	91.3
HCC1599 [14]	–	88.3	–	–	88.3	89.8
HCC1937 [12]	–	86	–	–	97.4	97.6
HDQ-P1	99.3	–	104	111	–	–
Hs578T	–	115	–	–	108	109
MDA-MB-231 [13]	–	88.1	–	–	89.6	111
MDA-MB-436	–	104	–	–	116	109
MDA-MB-468 [9]	–	97.9	–	–	107	91.6

COCC[n+]1c2c(n(Cc3cnccn3)c1C)C(=O)c1ccccc1C2=O [YM155]
Details	drug sensitivity score
BT-474	32.9
BT-549	26.8
CAL-51	31.9
CAL-85-1 [2]	38
CAL-120 [3]	40.9
CAL-148 [7]	35.7
DU-4475	23.3
HCC1143 [8]	30.3
HCC1599 [6]	34
HCC1937 [4]	39.1
MDA-MB-231 [5]	40
MDA-MB-453	35.5
MDA-MB-468 [1]	40.3
MFM-223	29.7

normalised viability [%]
Details	3 nM	10 nM	30 nM	100 nM	1000 nM	10000 nM
CAL-85-1 [10]	90.3	–	3.33	1.96	–	–
CAL-120 [11]	–	9.27	–	–	2.84	3.14
CAL-148 [15]	98.3	–	1.65	1.83	–	–
HCC1143 [16]	–	83.8	–	–	3.34	2.44
HCC1599 [14]	–	62.8	–	–	3.16	2.97
HCC1937 [12]	–	25	–	–	0.8	2.31
HDQ-P1	80.4	–	16.8	0.96	–	–
Hs578T	–	84.8	–	–	19.6	-0.04
MDA-MB-231 [13]	–	14.7	–	–	1.23	2.19
MDA-MB-436	–	34.5	–	–	0.04	0.01
MDA-MB-468 [9]	–	12.8	–	–	0.21	0.26

O=C(/C=C/c1cccc(S(=O)(=O)Nc2ccccc2)c1)NO [Belinostat]
Details	drug sensitivity score
BT-474	11.8
BT-549	8.08
CAL-51	10.6
CAL-85-1 [2]	12.2
CAL-120 [3]	19
CAL-148 [7]	17.1
DU-4475	15
HCC1143 [8]	10.3
HCC1599 [6]	14.6
HCC1937 [4]	12.3
MDA-MB-231 [5]	12.5
MDA-MB-453	22.4
MDA-MB-468 [1]	8.06
MFM-223	12.7

normalised viability [%]
Details	3 nM	10 nM	30 nM	100 nM	1000 nM	10000 nM
CAL-85-1 [10]	95.7	–	79.5	86.8	–	–
CAL-120 [11]	–	87.7	–	–	20.5	3.33
CAL-148 [15]	90.7	–	97.2	81.7	–	–
HCC1143 [16]	–	99.4	–	–	54	12.9
HCC1599 [14]	–	90	–	–	33.2	15.4
HCC1937 [12]	–	46.4	–	–	41.4	15.1
HDQ-P1	90.4	–	90.8	72.5	–	–
Hs578T	–	114	–	–	74.7	7.02
MDA-MB-231 [13]	–	96.1	–	–	40.7	7.79
MDA-MB-436	–	116	–	–	38.8	17.4
MDA-MB-468 [9]	–	112	–	–	66.9	16.3

Cc1[nH]c2ccccc2c1CCNCc1ccc(/C=C/C(=O)NO)cc1 [Panobinostat]
Details	drug sensitivity score
BT-474	17.5
BT-549	9.07
CAL-51	15
CAL-85-1 [2]	18.2
CAL-120 [3]	22.2
CAL-148 [7]	22.1
DU-4475	20
HCC1143 [8]	16.3
HCC1599 [6]	16.1
HCC1937 [4]	17.9
MDA-MB-231 [5]	16.5
MDA-MB-453	27.8
MDA-MB-468 [1]	11.3
MFM-223	14.6

normalised viability [%]
Details	0.3 nM	1 nM	3 nM	10 nM	100 nM	1000 nM
CAL-85-1 [10]	98	–	88.3	81.4	–	–
CAL-120 [11]	–	109	–	–	9.65	3.59
CAL-148 [15]	96.5	–	104	59.4	–	–
HCC1143 [16]	–	102	–	–	20.7	12.2
HCC1599 [14]	–	99.7	–	–	23	16.3
HCC1937 [12]	–	110	–	–	26.2	15.1
HDQ-P1	120	–	115	93.1	–	–
Hs578T	–	152	–	–	13.8	5.54
MDA-MB-231 [13]	–	120	–	–	13.3	7.26
MDA-MB-436	–	110	–	–	59.1	17
MDA-MB-468 [9]	–	108	–	–	52.2	16.7
